Kb data for 20 compounds are collected here from patent US7829563B2, “Aminoamides as orexin antagonists” (Hoffmann-La Roche Inc., priority 2007, dated 2010).

In the experiment the target is T1, human orexin-2 (hOX2) receptors (Homo sapiens, UniProt O43614).
T1 construct: expressed in transfected cells
T1 sequence (O43614 1-444): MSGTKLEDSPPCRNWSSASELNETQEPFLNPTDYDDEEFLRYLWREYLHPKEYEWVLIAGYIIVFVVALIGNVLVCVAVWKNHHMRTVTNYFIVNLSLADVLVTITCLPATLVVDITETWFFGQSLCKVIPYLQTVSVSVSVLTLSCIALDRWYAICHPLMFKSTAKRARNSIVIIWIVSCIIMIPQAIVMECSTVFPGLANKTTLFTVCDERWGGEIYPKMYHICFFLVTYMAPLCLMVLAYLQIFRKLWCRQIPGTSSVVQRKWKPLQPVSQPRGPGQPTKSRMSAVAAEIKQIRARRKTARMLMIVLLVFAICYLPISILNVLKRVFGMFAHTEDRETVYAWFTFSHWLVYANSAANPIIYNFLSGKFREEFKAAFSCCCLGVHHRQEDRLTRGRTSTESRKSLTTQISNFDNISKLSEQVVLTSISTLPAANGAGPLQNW
Description: Intracellular Ca2+ mobilization assay (FLIPR), antagonism of orexin-A. The following applies: CHO(dHFr−) cells stably expressing hOX2; orexin-A at EC80 as agonist; Kb=IC50/(1+[A]/EC50); read-out: Kb (μM) OX2R (human). It is filed as cell-based. The protocol:
R^7 and R^8 in scheme 5 are hydrogen, and the other substituents are as described above The compounds were investigated in accordance with the test given hereinafter. Intracellular Ca^2+ Mobilization Assay
The Chinese Hamster Ovary (dHFr−) mutant cell line stably expressing human orexin-1 (hOX1) or human orexin-2 (hOX2) receptors were maintained in Dulbecco's Modified Eagle Medium (1×) with GlutaMax™ 1, 4500 mg/L D-Glucose and Sodium Pyruvate (Catalog No. 31966-021, Invitrogen, Carlsbad, Calif.), 5% dialyzed fetal calf serum (Catalog No. 26400-044), 100 μg/ml penicillin and 100 μg/ml streptomycin. The cells were seeded at 5×10^4 cells/well in the poly-D-lysine treated, 96-well, black/clear-bottomed plates (Catalog No. BD356640, BD Biosciences, Palo Alto, Calif.). 24 h later, the cells were loaded for 1 h at 37° C. with 4 μM Flou-4 acetoxymethyl ester (Catalog No. F-14202, Molecular Probes, Eugene, Oreg.) in FLIPR buffer (1×HBSS, 20 mM HEPES, 2.5 mM Probenecid). Hanks' Balanced Salt Solution (HBSS) (10×) (catalog No. 14065-049) and HEPES (1M) (catalog No. 15630-056) were purchased from Invitrogen, Carlsbad, Calif. Probenecid (250 mM) (catalog No. P8761) was from Sigma, Buchs, Switzerland. The cells were washed five times with FLIPR buffer to remove excess dye and intracellular calcium mobilization, [Ca^2+]i were measured using a Fluorometric Imaging Plate Reader (FLIPR-96, Molecular Devices, Menlo Park, Calif.) as described previously (Malherbe et al., Mol. Pharmacol., 64, 823-832, 2003). Orexin A (catalog No. 1455, Toris Cookson Ltd, Bristol, UK) was used as agonist. Orexin A ([…] stock solution in DMSO) was diluted in FLIPR buffer+0.1% BSA. The EC50 and EC80 values of orexin-A were measured daily from standard agonist concentration-response curves in CHO(dHFr−)-OX1R and —OX2R cell lines. All compounds were dissolved in 100% DMSO. Inhibition curves were determined by addition of 11 concentrations (0.0001-10 μM) of inhibitory compounds and using EC80 value of orexin-A as agonist (a concentration which gave 80% of max agonist response, determined daily). The antagonists were applied 25 min (incubation at 37° C.) before the application of the agonist. Responses were measured as peak increase in fluorescence minus basal, normalized to the maximal stimulatory effect induced by EC80 value of orexin-A or orexin-B. Inhibition curves were fitted according to the Hill equation: y=100/(1+(x/IC50)^nH), where nH=slope factor using Excel-fit 4 software (Microsoft). Kb values were calculated according to the following equation Kb=IC50/(1+[A]/EC50) where A is the concentration of agonist added which is very close to agonist EC80 value, and IC50 and EC50 values were derived from the antagonist inhibition and orexin-A or B agonist curves, respectively.
A general note: Calcium flux is commonly read through the fluorescence of an indicator in the cells.
The term Kb denotes the equilibrium dissociation constant of an antagonist, usually derived from a functional assay. `CNC(=O)[C@H](N[C@@H](CCc1ccc(C(F)(F)F)nc1)c1ccc(Cl)c(OC)c1)c1ccccc1` (racemic) [Example 216, (S,R)-2-[(R,S)-1-(4-Chloro-3-methoxy-phenyl)-3-(6-trifluoromethyl-pyridin-3-yl)-propylamino]-N-methyl-2-phenyl-acetamide]: the Kb was 0.0073 µM.

With `CNC(=O)[C@H](N[C@@H](CCc1ccc(C(F)(F)F)nc1)c1ccc(Cl)c(OC)c1)c1ccc(Cl)cc1` (racemic) [Example 220, (S,R)-2-[(R,S)-1-(4-Chloro-3-methoxy-phenyl)-3-(6-trifluoromethyl-pyridin-3-yl)-propylamino]-2-(4-chloro-phenyl)-N-methyl-acetamide], the Kb is 0.0015 µM.

In the case of `CNC(=O)[C@H](N[C@H](CCc1ccc(C(F)(F)F)nc1)c1ccc(Cl)c(OC)c1)c1ccc(F)cc1` (racemic) [Example 223, (S,R)-2-[(S,R)-1-(4-Chloro-3-methoxy-phenyl)-3-(6-trifluoromethyl-pyridin-3-yl)-propylamino]-2-(4-fluoro-phenyl)-N-methyl-acetamide], the Kb came to 0.0171 µM.

For the compound `CNC(=O)[C@H](N[C@@H](CCc1ccc(C(F)(F)F)nc1)c1ccc(Cl)c(OC)c1)c1ccc(F)cc1` (racemic) [Example 224, (S,R)-2-[(R,S)-1-(4-Chloro-3-methoxy-phenyl)-3-(6-trifluoromethyl-pyridin-3-yl)-propylamino]-2-(4-fluoro-phenyl)-N-methyl-acetamide], the Kb is 0.0057 µM.

For the compound `CNC(=O)[C@H](N[C@@H](CCc1ccc(C(F)(F)F)nc1)c1cccc(OC(F)F)c1)c1ccccc1` (racemic) [Example 225, (S,R)-2-[(R,S)-1-(3-Difluoromethoxy-phenyl)-3-(6-trifluoromethyl-pyridin-3-yl)-propylamino]-N-methyl-2-phenyl-acetamide], the Kb was 0.0144 µM.

Consider `CNC(=O)[C@H](N[C@H](CCc1ccc(C(F)(F)F)nc1)c1cccc(OC(F)(F)F)c1)c1ccccc1` (racemic) [Example 226, (S,R)—N-Methyl-2-phenyl-2-[(S,R)-1-(3-trifluoromethoxy-phenyl)-3-(6-trifluoromethyl-pyridin-3-yl)-propylamino]-acetamide], for which the Kb was found to be 0.0195 µM.

As to `CNC(=O)[C@H](N[C@@H](CCc1ccc(C(F)(F)F)nc1)c1ccc(F)c(C)c1)c1ccccc1` (racemic) [Example 228, (S,R)-2-[(R,S)-1-(4-Fluoro-3-methyl-phenyl)-3-(6-trifluoromethyl-pyridin-3-yl)-propylamino]-N-methyl-2-phenyl-acetamide], the Kb was 0.0035 µM.

With `CNC(=O)[C@H](N[C@@H](CCc1ccc(C(F)(F)F)nc1)c1ccc(F)c(OC)c1)c1ccc(Cl)cc1` (racemic) [Example 230, (S,R)-2-(4-Chloro-phenyl)-2-[(R,S)-1-(4-fluoro-3-methoxy-phenyl)-3-(6-trifluoromethyl-pyridin-3-yl)-propylamino]-N-methyl-acetamide], the Kb was found to be 0.0117 µM.

Turning to `CNC(=O)[C@H](N[C@@H](CCc1ccc(C(F)(F)F)nc1)c1ccc(F)c(OC)c1)c1ccccc1` (racemic) [Example 232, (S,R)-2-[(R,S)-1-(4-Fluoro-3-methoxy-phenyl)-3-(6-trifluoromethyl-pyridin-3-yl)-propylamino]-N-methyl-2-phenyl-acetamide], the Kb was 0.0085 µM.

For the compound `CNC(=O)[C@H](N[C@@H](CCc1ccc(C(F)(F)F)nc1)c1ccc(OC(F)F)c(OC)c1)c1ccc(Cl)cc1` (racemic) [Example 234, (S,R)-2-(4-Chloro-phenyl)-2-[(R,S)-1-(4-difluoromethoxy-3-methoxy-phenyl)-3-(6-trifluoromethyl-pyridin-3-yl)-propylamino]-N-methyl-acetamide], the Kb was 0.013 µM.

Regarding `CNC(=O)[C@H](N[C@@H](CCc1ccc(C(F)(F)F)nc1)c1ccc(C)c(Cl)c1)c1ccccc1` (racemic) [Example 238, (S,R)-2-[(R,S)-1-(3-Chloro-4-methyl-phenyl)-3-(6-trifluoromethyl-pyridin-3-yl)-propylamino]-N-methyl-2-phenyl-acetamide], the antagonist dissociation constant (Kb) was determined as 0.0196 µM.

As for `CNC(=O)[C@H](N[C@@H](CCc1ccc(C(F)(F)F)nc1)c1ccc(F)c(OC)c1)c1ccc(F)cc1` (racemic) [Example 240, (S,R)-2-[(R,S)-1-(4-Fluoro-3-methoxy-phenyl)-3-(6-trifluoromethyl-pyridin-3-yl)-propylamino]-2-(4-fluoro-phenyl)-N-methyl-acetamide], the Kb was found to be 0.0107 µM.

Regarding `CNC(=O)[C@H](N[C@H](CCc1ccc(C(F)(F)F)nc1)c1ccc(Cl)c(C)c1)c1ccccc1` (racemic) [Example 243, (S,R)-2-[(S,R)-1-(4-Chloro-3-methyl-phenyl)-3-(6-trifluoromethyl-pyridin-3-yl)-propylamino]-N-methyl-2-phenyl-acetamide], the Kb is 0.0122 µM.

As to `CNC(=O)[C@H](N[C@@H](CCc1ccc(C(F)(F)F)nc1)c1ccc(Cl)c(C)c1)c1ccccc1` (racemic) [Example 244, (S,R)-2-[(R,S)-1-(4-Chloro-3-methyl-phenyl)-3-(6-trifluoromethyl-pyridin-3-yl)-propylamino]-N-methyl-2-phenyl-acetamide], the Kb was 0.0145 µM.

In the case of `CNC(=O)[C@H](N[C@@H](CCc1ccc(C(F)(F)F)nc1)c1ccc(C)c(C)c1)c1ccccc1` (racemic) [Example 251, (S,R)-2-[(R,S)-1-(3,4-Dimethyl-phenyl)-3-(6-trifluoromethyl-pyridin-3-yl)-propylamino]-N-methyl-2-phenyl-acetamide], the Kb was found to be 0.0022 µM.

`CNC(=O)[C@H](N[C@H](CCc1ccc(C(F)(F)F)nc1)c1ccc(C)c(OC)c1)c1ccccc1` (racemic) [Example 252, (S,R)-2-[(S,R)-1-(3-Methoxy-4-methyl-phenyl)-3-(6-trifluoromethyl-pyridin-3-yl)-propylamino]-N-methyl-2-phenyl-acetamide]: the Kb came out at 0.0024 µM.

Consider `CNC(=O)[C@H](N[C@@H](CCc1ccc(C(F)(F)F)nc1)c1ccc(C)c(OC)c1)c1ccccc1` (racemic) [Example 253, (S,R)-2-[(R,S)-1-(3-Methoxy-4-methyl-phenyl)-3-(6-trifluoromethyl-pyridin-3-yl)-propylamino]-N-methyl-2-phenyl-acetamide], for which the Kb was determined as 0.0034 µM.

Consider `CNC(=O)[C@H](N[C@@H](CCc1ccc(Cl)nc1)c1ccc(F)c(C)c1)c1ccccc1` (racemic) [Example 266, (S,R)-2-[(R,S)-3-(6-Chloro-pyridin-3-yl)-1-(4-fluoro-3-methyl-phenyl)-propylamino]-N-methyl-2-phenyl-acetamide], for which the Kb is 0.0175 µM.

Take `CNC(=O)[C@H](N[C@H](CCc1ccc(C(F)(F)F)cc1)c1ccc(OC(F)F)c(OC(F)F)c1)c1ccccc1` (racemic) [Example 290, (S,R)-2-[(S,R)-1-(3,4-Bis-difluoromethoxy-phenyl)-3-(4-trifluoromethyl-phenyl)-propylamino]-N-methyl-2-phenyl-acetamide]: the Kb was 0.0536 µM.

As to `CNC(=O)[C@H](N[C@@H](CCc1ccc(Cl)nc1)c1ccc(OC(F)F)c(OC(F)F)c1)c1ccccc1` (racemic) [Example 296, (S,R)-2-[(R,S)-1-(3,4-Bis-difluoromethoxy-phenyl)-3-(6-chloro-pyridin-3-yl)-propylamino]-N-methyl-2-phenyl-acetamide], the Kb is 0.013 µM.
